We go through 15 compounds from patent US20240246943A1, “MULTIFACETED APPROACH TO NOVEL INTERLEUKIN-6 INHIBITORS” (UNIVERSITY OF FLORIDA RESEARCH FOUNDATION, INCORPORATED, priority 2021, published 2024).

Where two headings read alike, the source gives them in different places. Marks after values point to notes of the source that are not given here.

Holding throughout (format): cell-based
Assay [1] has as its system SUM159 breast cancer cells. Description: MTT cell viability assay, SUM159. The settings on record: for IC50 Values in Breast Cancer Cell Lines, SUM159 / SUM159 IC50 / IC50: 72 hours, Inactive = no measurable activity at 20 μM. The protocol:
(§1) Cell viability of MDA-MB-231 breast cancer cells was evaluated by using the MTT assay in triple replicates in one experiment and repeated for three times (FIG. 3). MDA-MB-231 SUM159, SUM159 gp140ko, MDA-MB-231 breast cancer cells or SUM149 or HCC1937 BRCA mutant breast cancer cells were seeded in 96-well plates at a density of 3,000 cells per well. The cells were incubated at 37° C. for a period of 24 hours. Escalating concentrations of IL-6/gp130 inhibitors (e.g., compounds of Formula (A), (B), (C), (D), (E), or (F) including LLM-418, bazedoxifene, LS-28-3, and COMP-D (LS-101-D)) were added in triplicate to the plates in the presence of 10% FBS. After incubation for 72 hours (unless otherwise noted), a stock solution of MTT (0.5 mg/ml) was then added to each well containing the treated cells, followed by incubation at 37° C. for 3 h. After removal of medium, the MTT dye was dissolved with spectrophotometric grade DMSO and the absorbance was read at 570 nm. The IC50 value is determined by interpolation based on the absorbance value halfway between positive and negative controls.
A general note: Tetrazolium assays rely on reduction of a dye to a coloured formazan, in cell work by metabolically active cells.

The test system of assay [2] is MDA-MB-231 breast cancer cells. The assay can be described thus: MTT cell viability assay, MDA-MB-231. The protocol:
as §1, with “MDA-MB-231 SUM159, SUM159 gp140ko, MDA-MB-231 breast cancer cells or SUM149 or HCC1937 BRCA mutant breast cancer cells were seeded in 96-well plates at a density of 3,000 cells per well.” left out

Assay [3] deals with MDA-MB-231 Bone Metastatic breast cancer cells. Description: MTT cell viability assay, MDA-MB-231 Bone Metastatic. The conditions noted are these: 72 hours. The protocol:
as §1, with “MDA-MB-231 SUM159, SUM159 gp140ko, MDA-MB-231 breast cancer cells or SUM149 or HCC1937 BRCA mutant breast cancer cells were seeded in 96-well plates at a density of 3,000 cells per well.” left out

The test system of assay [4] is SUM159 gp130ko breast cancer cells. Description: MTT cell viability assay, SUM159 gp130ko. The conditions noted are these: 72 hours, read-out: IC50 Values in Breast Cancer Cell Lines, SUM159 gp130ko. The protocol:
as §1, with “MDA-MB-231 SUM159, SUM159 gp140ko, MDA-MB-231 breast cancer cells or SUM149 or HCC1937 BRCA mutant breast cancer cells were seeded in 96-well plates at a density of 3,000 cells per well.” left out

[5] abbreviates: Table 3 batch studies (independent from Table 1).
Where [6] appears, read: Table 1 batch studies, MTT, 72 hours, Inactive = no measurable activity at 20 μM.
Setting [7] is: Table 3 batch studies (independent from Table 1), MTT, 72 hours, Inactive = no measurable activity at 20 μM.
Setting [8] is: SUM159, Table 1 batch studies, read-out: IC50 Values in Breast Cancer Cell Lines, SUM159.
The mark [9] stands for this setting: SUM159, Table 3 batch studies (independent from Table 1), read-out: SUM159 IC50.
The mark [10] stands for this setting: Homo sapiens, MDA-MB-231, Table 1 batch studies, MTT, 72 hours, Inactive = no measurable activity at 20 μM, read-out: IC50 Values in Breast Cancer Cell Lines, MDA-MB-231.
Setting [11] is: Homo sapiens, MDA-MB-231, Table 3 batch studies (independent from Table 1), MTT, 72 hours, Inactive = no measurable activity at 20 μM, read-out: MDA-MB-231 IC50.
The mark [12] stands for this setting: Table 1 batch studies, read-out: IC50 Values in Breast Cancer Cell Lines, SUM159.
[13] abbreviates: Table 3 batch studies (independent from Table 1), read-out: SUM159 IC50.
Setting [14] is: Table 1 batch studies, MTT, 72 hours, Inactive = no measurable activity at 20 μM, read-out: IC50 Values in Breast Cancer Cell Lines, MDA-MB-231.
[15] abbreviates: Table 3 batch studies (independent from Table 1), MTT, 72 hours, Inactive = no measurable activity at 20 μM, read-out: MDA-MB-231 IC50.

On to `O=C(Nc1ccccc1-c1cn([C@@H]2OC[C@@H](O)[C@H](O)[C@H]2O)nn1)c1ccc(OCCN2CCCCC2)cc1` [LS-TX-2, 4-(2-(piperidin-1-yl)ethoxy)-N-(2-(1-((2R,3R,4S,5R)-3,4,5-trihydroxytetrahydro-2H-pyran-2-yl)-1H-1,2,3-triazol-4-yl)phenyl)benzamide·acetic acid], for which the “IC50 Values in Breast Cancer Cell Lines, SUM159” value (shortened to “IC50 Values … SUM159”) in assay [1] (Table 1 batch studies) was “Inactive”. Further, in assay [1] (setting [5]), the “SUM159 IC50” value is recorded as “Inactive”. The “IC50 Values in Breast Cancer Cell Lines, MDA-MB-231” value (“IC50 Values … MDA-MB-231” below) in assay [2] (setting [6]) is on record as “Inactive”. Besides, in assay [2] (setting [7]), the “MDA-MB-231 IC50” value was “Inactive”.
Broadly, the IC50 is the concentration that gives 50% inhibition. In the case of `O=C(Nc1cc(F)ccc1N1CCCC1)c1ccc(OCCCN2CCCCC2)cc1` [LLM4-S2, N-(5-fluoro-2-(pyrrolidin-1-yl)phenyl)-4-(3-(piperidin-1-yl)propoxy)benzamide], the IC50 in assay [1] (setting [8]) came out at 24.7 µM; in assay [1] (setting [9]), 24.7 µM; in assay [2] (setting [10]), 47.8 µM; in assay [2] (setting [11]) it was 47.8 µM.
Regarding `CC1(C)O[C@@H]2[C@@H](CO[C@@]3(Cn4cc(-c5ccc(NC(=O)c6ccc(OCCN7CCCCC7)cc6)cc5)nn4)OC(C)(C)O[C@@H]23)O1` [LS-TF-4P], the IC50 turned out to be 26.1 µM in assay [1] (setting [12]); 26.1 µM in assay [1] (setting [13]); 18.4 µM in assay [2] (setting [14]); 18.4 µM in assay [2] (setting [15]); 26.7 µM in assay [3] (Table 3 batch studies (independent from Table 1), read-out: MDA-MB-231 Bone Metastatic IC50); 26.7 µM in assay [4] (Table 1 batch studies).
As to `O=C(Nc1ccccc1-n1cccc1)c1ccc(OCCCN2CCCCC2)cc1` [LLM4-S1, N-(2-(1H-pyrrol-1-yl)phenyl)-4-(3-(piperidin-1-yl)propoxy)benzamide], the IC50 was determined as 58.7 µM in assay [1] (setting [8]), 58.7 µM in assay [1] (setting [9]), 53.1 µM in assay [2] (setting [10]) and 53.1 µM in assay [2] (setting [11]).
Regarding `O=C(Nc1cccc(-c2cn([C@@H]3OC[C@@H](O)[C@H](O)[C@H]3O)nn2)c1)c1ccc(OCCN2CCCCC2)cc1` [LS-TX-3, 4-(2-(piperidin-1-yl)ethoxy)-N-(3-(1-((2R,3R,4S,5R)-3,4,5-trihydroxytetrahydro-2H-pyran-2-yl)-1H-1,2,3-triazol-4-yl)phenyl)benzamide·acetic acid], the “IC50 Values … SUM159” value in assay [1] (Table 1 batch studies) is listed as “Inactive”. In addition, in assay [1] (setting [5]), the “SUM159 IC50” value is “Inactive”. In addition, in assay [2] (setting [6]), the “IC50 Values … MDA-MB-231” value is on record as “Inactive”. Also, the “MDA-MB-231 IC50” value in assay [2] (setting [7]) is on record as “Inactive”.
In the case of `c1ccc2c(c1)nc(-c1ccc(OCCN3CCCCC3)cc1)n1nccc21` [LLM418-SC, 5-(4-(2-(piperidin-1-yl)ethoxy)phenyl)pyrazolo[1,5-c]quinazoline], the IC50 was 11.3 µM in assay [2] (Homo sapiens, MDA-MB-231, Table 1 batch studies, 48-hour MTT, read-out: IC50, MDA-MB-231, 48-hour MTT) and 11.3 µM in assay [2] (Homo sapiens, MDA-MB-231, Table 3 batch studies, 48-hour MTT, read-out: MDA-MB-231 IC50, 48-hour MTT).
For `O=C(Nc1cc(F)ccc1-n1cccc1)c1ccc(OCCCN2CCCCC2)cc1` [LLM4], the IC50 in assay [1] (setting [12]) was 31.1 µM; in assay [1] (setting [13]) it was 31.1 µM; in assay [2] (setting [14]), 47.7 µM; in assay [2] (setting [15]), 47.7 µM.
Take `Cc1c(-c2ccc(O)cc2)n(Cc2ccc(OCCN3CCCCCC3)cc2)c2ccc(O)cc12` [Bazedoxifene, bazedoxifene, reference compound]: the IC50 in assay [1] (setting [9]) stood at 7.1 µM; in assay [2] (setting [11]) it was 12 µM.
Take `CC1(C)O[C@@H]2[C@@H](CO[C@@]3(Cn4cc(-c5cccc(NC(=O)c6ccc(OCCN7CCCCC7)cc6)c5)nn4)OC(C)(C)O[C@@H]23)O1` [LS-TF-3P]: the IC50 in assay [1] (setting [13]) was 16 µM; in assay [2] (setting [15]), 67 µM.
In the case of `O=C(Nc1ccccc1-c1ccn[nH]1)c1ccc(OCCN2CCCCC2)cc1` [LLM418, N-(2-(1H-pyrazol-5-yl)phenyl)-4-(2-(piperidin-1-yl)ethoxy)benzamide], the IC50 was 16.3 µM in assay [1] (setting [8]); 16.3 µM in assay [1] (setting [9]); 25.1 µM in assay [2] (setting [10]); 28.1 µM in assay [2] (setting [11]); 23.7 µM in assay [3] (Homo sapiens, MDA-MB-231, Table 1 batch studies, read-out: IC50 Values in Breast Cancer Cell Lines, MDA-MB-231 Bone Metastatic); 23.7 µM in assay [3] (Homo sapiens, MDA-MB-231, Table 3 batch studies (independent from Table 1), read-out: MDA-MB-231 Bone Metastatic IC50). The IC50 in assay [4] (SUM159, Table 1 batch studies) came out at 22.5 µM.
As to `CC(C)[C@H]1COC(=O)N1c1ccc(C(=O)Nc2ccccc2-c2cc[nH]n2)cc1` [LS-28-2, (S)—N-(2-(1H-pyrazol-3-yl)phenyl)-4-(4-isopropyl-2-oxooxazolidin-3-yl)benzamide], the “Percent cells remaining after treatment with 20 μM compound, SUM159” value in assay [1] (Table 1 batch studies) and in assay [1] (Table 3 batch studies) was 33%* each time. Also, the “Percent cells remaining after treatment with 20 μM compound, MDA-MB-231” value in assay [2] (Table 1 batch studies, MTT) amounted to 21%*; in assay [2] (Table 3 batch studies, MTT), 21%*.
Take `CCCn1ccc(-c2ccccc2NC(=O)c2ccc(OCCN3CCCCC3)cc2)n1` [LLM418-Pr, N-(2-(1-propyl-1H-pyrazol-3-yl)phenyl)-4-(2-(piperidin-1-yl)ethoxy)benzamide]: the IC50 in assay [2] (setting [10]) and in assay [2] (setting [11]) was 5.8 µM throughout.
For the compound `O=C(Nc1ccc(-c2cn([C@@H]3OC[C@@H](O)[C@H](O)[C@H]3O)nn2)cc1)c1ccc(OCCN2CCCCC2)cc1` [LS-TX-4, 4-(2-(piperidin-1-yl)ethoxy)-N-(4-(1-((2R,3R,4S,5R)-3,4,5-trihydroxytetrahydro-2H-pyran-2-yl)-1H-1,2,3-triazol-4-yl)phenyl)benzamide·acetic acid], the “IC50 Values … SUM159” value in assay [1] (Table 1 batch studies) is given as “Inactive”. The “SUM159 IC50” value in assay [1] (setting [5]) was “Inactive”. Also, in assay [2] (setting [6]), the “IC50 Values … MDA-MB-231” value is “Inactive”. Also, in assay [2] (setting [7]), the “MDA-MB-231 IC50” value is listed as “Inactive”.
Take `O=C(Nc1ccccc1-c1ccn(CC(F)(F)F)n1)c1ccc(OCCN2CCCCC2)cc1` [LLM418-MCF3, 4-(2-(piperidin-1-yl)ethoxy)-N-(2-(1-(2,2,2-trifluoroethyl)-1H-pyrazol-3-yl)phenyl)benzamide]: the IC50 turned out to be 16 µM in assay [1] (setting [8]), 16 µM in assay [1] (setting [9]), 169 µM in assay [2] (setting [10]) and 169 µM in assay [2] (setting [11]).
With `O=C(Nc1ccccc1N1CCCC1)c1ccc(OCCCN2CCCCC2)cc1` [LLM4-S3, 4-(3-(piperidin-1-yl)propoxy)-N-(2-(pyrrolidin-1-yl)phenyl)benzamide], the IC50 in assay [1] (setting [8]) was found to be 46.1 µM; in assay [1] (setting [9]), 46.1 µM; in assay [2] (setting [10]) it was 49.1 µM; in assay [2] (setting [11]), 49.1 µM.
